Assay [1] has as its system guinea pig thoracic aorta. Briefly: Thoracic aorta in organ bath, measurement of tension. The following applies: for effect on norepinephrine-contracted aorta: added at peak norepinephrine contraction, endothelium present.
Assay [2] has as its target T1, tumor cell-secreted nucleoside diphosphate kinase-B (NDPK-B, Nm23-H2) (Homo sapiens, UniProt P22392).
T1 construct: Partially purified tumor cell-secreted nucleoside diphosphate kinase-B was incubated with ADP and GTP; endogenous in cells; host or cells: human tumor cell lines MDA-MB-435s, Calu-1, WiDr and PC-3; concentrated conditioned Krebs buffer
Briefly: NDPK-B kinase activity assay (ADP to ATP with GTP as phosphoryl donor, luciferin-luciferase). The class given is biochemical. The conditions noted are these: for Km: KM of NDPK-B for ADP in presence of the inhibitor; for Inhibition / IC50: inhibition of NDPK-B activity; for Inhibition: Yes/No, conc. tested differs per compound (0.3-10,000 μM); for inhibition of nucleoside diphosphate kinase-B activity (in words): summary of Table 1. On the procedure: The human tumors MDA-MB-435s (breast ductal carcinoma), Calu-1 (metastatic lung carcinoma), WiDr (colorectal carcinoma), and PC-3 (prostatic carcinoma) were grown to confluence in DMEM with 10% heat-inactivated FBS and antibiotics. Media was replaced with Krebs buffer (25 mM Hepes, pH 7.4) and incubated at 37° C. with gentle rocking for 4 hours. The supernatant was removed and concentrated by spin concentrators. Nucleoside diphosphate kinase activity of the retentate was assayed for activity and stored at −20° C.
Conversion of ADP to ATP, using GTP as the phosphoryl donor, was quantified using the Luciferin-Luciferase ATP assay as we have previously described (9). All necessary steps were taken to eliminate and account for interference between potential nucleoside diphosphate kinase-B inhibitors and the luciferase in the assay.
Partially purified tumor cell-secreted nucleoside diphosphate kinase-B was incubated with ADP and GTP in the presence of varying concentrations of putative nucleoside diphosphate kinase inhibitors or putative metastasis/angiogenesis inhibitors and the resulting ATP generated was measured by chemiluminescence using the luciferin-luciferase assay. […] Molecular modeling studies support these kinetic assumptions (data not shown).

Assay [3] relates to Endothelial cells (CD31+ cells from guinea pig hearts). Briefly: Angiogenesis assay (endothelial tube formation on EHS matrix). The format is cell-based. The following applies: 30 and 100 μM, ~16 hrs, endothelial tubes on EHS matrix. On the procedure: Endothelial cells (CD31^+ cells from guinea pig hearts) were plated on a matrix composed of basement proteins from the Engelbreth Holm-Swarm (EHS) mouse tumor. The cells were incubated for 16 hrs in Complete Dulbecco's Modified Eagle Medium (CDMEM) with added tea catechins ellagic acid (EA), epigallocatechin gallate (EGCG), and epicatechin gallate (ECG). Bright field images were taken using a Nikon phase-contrast microscope and a Pulnix digital camera. […] Data are representative of two experiments. Fluorescence activated cell sorting (FACS) was used to select cardiac endothelial cells positive for the PECAM marker CD31. Endothelial cells were plated on a matrix of basement proteins from the Engelbreth Holm-Swarm (EHS) mouse tumor. A complete DME media containing 10% FBS was used to maintain endothelial cultures. Differentiation of the cells into endothelial tubes was monitored in the presence and absence of the compounds of interest.

Assay [4] relates to Human endothelial cells monolayer. The assay can be described thus: Tumor cell-induced paracellular holes in endothelial cell monolayers. The format is cell-based. The conditions noted are these: added at the same time as tumor cells. The text has this:
Additional studies aimed at direct analysis of the ability of polyphenolic catechin gallates to prevent breast cancer cell entry into and exit from vessels has been addressed by examining the ability of tumor cells to induce paracellular passages in endothelial cells monolayers in culture. Human endothelial cells grown to confluence in culture can be examined as a model of capillary intravasation or extravasation as in cases of human breast cancer metastasis in vivo, by examining their ability to form large (>30 μm) holes between cells (paracellular holes). […] Addition of tumor cells on top of the monolayer at concentrations of 1 cancer cell per 10,000 endothelial cells leads to the wide-spread appearance of large paracellular holes in the monolayer within 15 minutes of application of tumor cells. […] The effect is complete at 30 μM epigallocatechin gallate. Careful quantification of the presence of paracellular holes is underway using video imaging.

In assay [5] the test system is caspase-3. The assay can be described thus: Caspase-3 activity in staurosporine-treated endothelial cells. The conditions noted are these: for caspase-3 activity (DEVDase): near-confluent monolayers of endothelial cells, cyclodextrin as pretreatment before staurosporine; for caspase-3 fluorescent substrate pattern in intact cells: staurosporine for 3 hours, with or without cholesterol-altering agents. The class given is cell-based, guinea pig. The method, then: Control cells received 0.05% DMSO final as a control for drug vehicle (n=4). Clarified supernatants from detergentsolubilized cells are assayed for DEVDase activity using the colorimetric caspase-3 substrate DEVD-pnitroaniline.
The sequestration of cholesterol from the plasma membrane can disrupt the localization of proteins within caveolae and lipid rafts, which has shown to interrupt signaling pathways.
Using a fluorescent substrate, caspase-3 activity can b e visualized in intact cell preparations.

T1 sequence (P22392 whole entry): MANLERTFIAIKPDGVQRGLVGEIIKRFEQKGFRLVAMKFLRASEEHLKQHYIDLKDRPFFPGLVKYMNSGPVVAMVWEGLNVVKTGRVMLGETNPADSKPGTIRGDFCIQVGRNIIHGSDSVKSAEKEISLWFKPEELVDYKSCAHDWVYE

As to `CSc1nc(N)c2ncn([C@@H]3O[C@H](COP(=O)(O)OP(=O)(O)OP(=O)(O)O)[C@@H](O)[C@H]3O)c2n1` [2-methyl thio-ATP], in assay [1], the “effect on norepinephrine-contracted aorta” value is reported as “completely relaxes”.
Turning to `Nc1ncnc2c1nc(Cl)n2[C@@H]1O[C@@H]2COP(=O)(O)O[C@H]2[C@H]1O` [8-Cl-cAMP], in assay [2], the Km was 7.5 ± 1.5 µM, the Inhibition entry was “Yes” and the “inhibition of nucleoside diphosphate kinase-B activity (in words)” value (“inhibition … (in words)” below) is “relatively low potency”. This compound returned an IC50 in assay [2] (value in mM) of roughly 1 mM.
With `Cc1cn([C@H]2C[C@H](N=[N+]=[N-])[C@@H](CO)O2)c(=O)[nH]c1=O` [AZT], in assay [2], the Inhibition result is “No”.
In the case of `O=C(O[C@@H]1Cc2c(O)cc(O)cc2O[C@@H]1c1ccc(O)c(O)c1)c1cc(O)c(O)c(O)c1` [ECG, epicatechin gallate], the inhibition of angiogenesis entry in assay [3] was “dose-dependent inhibition of angiogenesis”. In assay [2], the IC50 was 0.17 mM and the Inhibition entry is listed as “Yes”.
In the case of `Oc1cc(O)c2c(c1)O[C@H](c1cc(O)c(O)c(O)c1)[C@H](O)C2` [EGC, epigallocatechin], in assay [2], the Inhibition result is given as “No” and the “inhibition … (in words)” value is “inhibited”.
On to `O=C(O[C@@H]1Cc2c(O)cc(O)cc2O[C@@H]1c1cc(O)c(O)c(O)c1)c1cc(O)c(O)c(O)c1` [EGCG, epigallocatechin gallate], for which, in assay [1], the “effect on norepinephrine-contracted aorta” value is listed as “further small contraction of the vessel followed by relaxation”. For the same compound, the “effect on norepinephrine-contracted aorta” value in assay [1] (listed as epigallocatechin gallate) was “dramatic relaxation”. For the same compound, the “effect on aorta in the absence of endothelium” value in assay [1] (norepinephrine-contracted, endothelium absent) is “both contraction and relaxation are lost”. Moreover, the “EGCG-dependent relaxation after pretreatment with L-NAME” value in assay [1] (pretreatment with nitric oxide synthase inhibitor L-NAME) is “blocks epigallocatechin gallate-dependent relaxation”. For the same compound, the inhibition of angiogenesis result in assay [3] was “dose-dependent inhibition of angiogenesis”. The “formation of paracellular passages (holes >30 μm) induced by tumor cells” value in assay [4] (1 to 100 μM) is on record as “prevents the formation of the paracellular passages in a dose-dependent fashion”. Besides, in assay [4], the “concentration at which prevention of paracellular passages is complete” value was found to be 30 µM. In assay [2], the Km is 9.7 ± 1.8 µM, the IC50 worked out at 0.15 mM, the Inhibition entry is given as “Yes” and the “inhibition … (in words)” value is on record as “inhibited”.
As for `O=c1oc2c(O)c(O)cc3c(=O)oc4c(O)c(O)cc1c4c23` [Ellagic Acid, hexahydroxydiphenic acid dilactone], in assay [3], the inhibition of angiogenesis entry is recorded as “dose-dependent inhibition of angiogenesis”. Further, in assay [2], the IC50 came to 0.023 mM, the Inhibition entry is “Yes” and the “inhibition … (in words)” value is given as “highest inhibitory effect”.
Turning to `O=c1c(-c2ccc(O)cc2)coc2cc(O)cc(O)c12` [Genestein, genestein], in assay [2], the Inhibition result is “No”.
On to `Nc1ncnc2c1ncn2[C@@H]1O[C@H](COP(=O)(O)OS(=O)(=O)O)[C@@H](OP(=O)(O)O)[C@H]1O` [PAPS], for which, in assay [2], the Michaelis constant (Km) came out at 7.1 ± 1.4 µM, the IC50 stood at 0.5 mM, the Inhibition entry was “Yes” and the “inhibition … (in words)” value is recorded as “relatively low potency”.
`O=c1c(O)cccc2cc(O)c(O)c(O)c12` [Purpurogallin]: in assay [2], the IC50 turned out to be 0.6 mM and the Inhibition result is “Yes”.
As for `Oc1ccc(C=Cc2cc(O)cc(O)c2)cc1` [Resveratrol, resveratrol], in assay [2], the Inhibition result is “No”.
In the case of `CN[C@@H]1C[C@H]2O[C@@](C)([C@@H]1OC)n1c3ccccc3c3c4c(c5c6ccccc6n2c5c31)C(=O)NC4` [Staurosporine], in assay [5], the “caspase-3 activity (DEVDase)” value is on record as “induce caspase-3 activity” and the “caspase-3 fluorescent substrate pattern in intact cells” value is reported as “punctate fluorescence”.
`NC[C@H](O)c1ccc(O)c(O)c1` [norepinephrine]: the contraction of aorta result in assay [1] (addition to resting vessel) is reported as “contraction that is stable over time”.
For the compound fillipin III, the “caspase-3 fluorescent substrate pattern in intact cells” value in assay [5] is “global diffuse fluorescence”.
Consider β methyl-cyclodextrin, for which, in assay [5], the “caspase-3 activity (DEVDase)” value is “enhances enzymatic activity” and the “caspase-3 fluorescent substrate pattern in intact cells” value is “global diffuse fluorescence”.
